Values quoted from earlier work, collected in patent US8895065B2, “Single unit oral dose pharmaceutical composition comprising levodopa, carbidopa and entacapone or salts thereof” (Wockhardt Ltd., priority 2008, dated 2014).

Row | Structure (SMILES) | solubility in water
1 | C[C@@](Cc1ccc(O)c(O)c1)(NN)C(=O)O [Carbidopa] | slightly soluble
2 | N[C@@H](Cc1ccc(O)c(O)c1)C(=O)O [Levodopa, (−)-L-α-amino-β-(3,4-dihydroxybenzene)propanoic acid] | slightly soluble
